Experimental data from US5849777A, “Cell differentiation induction with mevalonate and mevalonolactone derivatives” (University of New Mexico, priority 1995, dated 1998).

Legend:
Canine glioma = experiment: in vivo tumor inhibition: canine model; design: species or system dog
Experimental: Canine glioma was implanted surgically into the brains of four outbred dogs (2×10^6 cells). This procedure normally causes death by tumor growth in 14-28 days.
[…] F) by I.P. injection in phosphate buffered saline.
Tumor progress was assessed at weekly intervals by NMR, employing GdDPTA as imaging agent. This method illuminates vascularization at the surface of the tumor, and provides images which correlate well with neuropathological observations.

[1] = system: Human peripheral blood leukocytes; experiment: IgG production by human peripheral blood leukocytes (HPBL) in vitro; assay type: cell-based
Experimental: Human peripheral blood leukocytes were cultured in a standard tissue culture medium. Aliquots of these cultured cells (1,000,000 cells/ml medium) were cultured for 6 hours, and the specified amount of Formula II compound was added; the cells were then cultured for an additional 90 hours. Sheep red blood cells (SRBC) conditioned with class-specific (IgG) goat anti-human antiserum (1:400) for 2 hours; then guinea pig complement (2%) for 2 hours were conjugated to Protein A as described in detail in Radioimaging and Radioimmunotherapy, Eds. S. W. Burchiel and B. A. Rhodes, Elsevier Science Publishing; New York, 1983, pp. 125-127, incorporated herein by reference.
1. Concentration inhibiting nonspecific IgG production below normal production.

CG tumor = experiment: chromium-release cell-mediated lympholysis (CML) vs CG tumor; assay type: in vivo, dog
Text: Cellular immune response reflected the results reported in III, 1 above. […] This also is in the absence of CG antigen exposure. […] Thus both cellular and humoral immunity appear to be modulatable in the absence of antigen by the compounds of the instant invention.

CG (canine glioma) cells = experiment: tumor-specific antibody production in vivo (anti-CG IgG titer); design: species or system dog; conditions: treatment 2+ months, tumor regressed
Text: Titer of CG-specific antibody was compared to control [no administration of compound IIa' and no implantation of CG (canine glioma) cells]. […] This increase in titer continued with time until tumor regression was noted by independent measurement (NMR evaluation, below).
The results are particularly striking as the experimental tumor (brain glioma) is generally considered to enjoy a privileged position beyond the blood/brain barrier, substantially beyond the reach of the humoral immune system. Experimental protocols are described in detail below (FIGS. 7-9, Example VII).

canine glioma cells = experiment: in vivo tumor inhibition: nude rat model; design: species or system Nude Rats (canine glioma cells)
Experimental: Fifty four Nude Rats (Harlan) were injected in the right flank with 5×10^6 canine glioma cells. Animals at the time of injection were between 52 and 63 days old and weighed approximately 200 g. The rats were divided into 7 groups, each group having a total number of 7 rats except for the control group, which totalled 12 animals. Compound IIc' was administered to the experimental animals at one of the following dose for each experimental group: 100 μg/kg, 10 μg/kg, 1 μg/kg, 0.1 μg/kg, 0.01 μg/kg and 0.001 μg/kg (phosphate buffer saline, M, W, F, I.P.). The control animals were injected with PBS (phosphate buffered saline) only. The volume of each injection was 100 μl. The injections of drug were simultaneously begun with injection of tumor cells. The animals were injected with the appropriate dosage of drug (1 ng/kg to […]) by I.P. injection and tumor length, width and depth were measured using caliphers each Monday, Wednesday and Friday (M, W, F) morning for approximately 9 weeks. Each point on the graphs represents the total of all rats for each group. […] The data were normalized for the greater number of control animals by multiplying the total tumor volume for the control animals by 7/12.

[2] = target: T1, rat liver HMG-COA reductase (Rattus norvegicus, UniProt P51639); experiment: inhibition of rat liver HMG-CoA reductase activity; assay type: biochemical; conditions: read-out: IC50 (concentration for 50% inhibition of rat liver HMG-COA reductase activity); Table I
T1 construct: rat liver HMG-COA reductase activity; from tissue; host or cells: rat liver
T1 sequence (P51639 1-887): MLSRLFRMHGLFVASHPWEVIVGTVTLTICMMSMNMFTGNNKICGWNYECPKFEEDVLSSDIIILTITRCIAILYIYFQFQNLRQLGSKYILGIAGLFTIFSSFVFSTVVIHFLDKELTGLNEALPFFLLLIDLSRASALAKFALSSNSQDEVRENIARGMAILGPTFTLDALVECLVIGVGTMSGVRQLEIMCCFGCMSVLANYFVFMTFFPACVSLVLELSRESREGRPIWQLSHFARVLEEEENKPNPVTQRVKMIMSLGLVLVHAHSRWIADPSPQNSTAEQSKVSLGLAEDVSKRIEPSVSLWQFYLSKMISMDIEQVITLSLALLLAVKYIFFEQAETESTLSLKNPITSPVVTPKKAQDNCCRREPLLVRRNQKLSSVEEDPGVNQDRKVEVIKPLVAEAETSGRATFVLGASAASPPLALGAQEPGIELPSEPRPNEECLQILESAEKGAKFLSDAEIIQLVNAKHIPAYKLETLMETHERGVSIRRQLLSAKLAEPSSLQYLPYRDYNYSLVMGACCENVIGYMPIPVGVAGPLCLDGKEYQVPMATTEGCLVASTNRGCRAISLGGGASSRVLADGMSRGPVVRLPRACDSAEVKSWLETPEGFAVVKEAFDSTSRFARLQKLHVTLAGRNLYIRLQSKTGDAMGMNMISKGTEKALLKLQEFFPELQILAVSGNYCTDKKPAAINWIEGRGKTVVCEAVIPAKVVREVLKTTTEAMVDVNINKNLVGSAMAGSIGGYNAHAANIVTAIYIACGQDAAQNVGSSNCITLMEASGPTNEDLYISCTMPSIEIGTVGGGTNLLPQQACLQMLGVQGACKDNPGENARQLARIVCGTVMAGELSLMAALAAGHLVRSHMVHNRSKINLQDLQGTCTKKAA
Text: While a number of the compounds of the Formula I are known HMG-CoA reductase inhibitors, there is no apparent correlation between HMG-CoA reductase inhibitory activity and promotion of differentiation activity according to the invention. […] Accordingly, useful guidelines for selecting compounds having optimal differentiation-promoting activity according to the invention broadly comprise selecting compounds of the Formula I having the specified stereochemical configuration and an in vitro immunological activity as set forth in the in vitro assay of Example II, of at least about 3-fold.

With `CC(C)c1nc(-c2ccccc2)n(-c2ccc(F)cc2)c1/C=C/[C@H](O)C[C@H](O)CC(=O)O` [TF-002] the “tumor status, later studies” value (Canine glioma; 10 μg/kg I.P. (data not shown)) was “free of tumor” and the “small tumor appeared on Day” value (Canine glioma; pre-treated, 10 μg/kg I.P. M, W, F after implantation (FIG. 8)) was 12 days.
In the case of `CC(C)c1nc(-c2ccccc2)n(-c2ccc(F)cc2)c1/C=C/[C@H](O)C[C@@H](O)CC(=O)O` [Compound IIc'], the “optimal dose in vitro (immune stimulation)” value ([1]; HPBL assay) is reported as 100 pM, the “Inhibitory Concentration (concentration inhibiting nonspecific IgG production below normal production)” value ([1]; HPBL, additional 90 h culture) is reported as “none found” and the “immune stimulant (in words)” value ([1]; see Examples above) is reported as “potent immune stimulant”. The “slope "M" (LINEAR REGRESSION OF TOXICITY), Y = "M"X + B” value (“slope "M"” below) (CG tumor; December 14, 1987) was 0.05, the “slope "M"” value (CG tumor; February 9, 1988) was 0.35 and the “slope "M"” value (CG tumor; February 17, 1988) was 0.75. For the same molecule, the “slope "M"” value (CG tumor; March 31, 1988) was 0.05, the “IC-50% TITER (ANTI-CG)” value (CG (canine glioma) cells) was “BASELINE VALUES” and the “optimal dose in vivo, equivalent concentration with uniform distribution” value (canine glioma cells; 100 ng/kg) was 250 pM. The “most effective dosage for inhibition of canine glioma cells” value (canine glioma cells; I.P., M, W, F, approx. 9 weeks (FIG. 3)) was 100 ng/kg, the cytostatic activity (canine glioma cells; higher doses, 10 and 100 μg/kg I.P.) was “Little or no cytostatic activity” and the cytostatic activity (canine glioma cells; lowest dose, 1 ng/kg I.P.) was “Little or no cytostatic activity”. For the same molecule, the IC50 [2] was 22 nM.
In the case of `CC(C)c1c(/C=C/C(O)CC(O)CC(=O)O)n(-c2ccc(F)cc2)c2ccccc12` (stereo not shown) [TF-004], the “tumor visible at Day” value (Canine glioma; treatment begun on Day 11 (FIG. 9)) is reported as 10 days.
